Assay results reported in patent publication US11236059B2, “Targeted cytotoxic ratjadone derivatives and conjugates thereof” (HELMHOLTZ-ZENTRUM FUER INFEKTIONSFORSCHUNG GMBH, priority 2017, dated 2022).
Like-named read-outs stand apart in the source and are kept apart here.

Tests used:
[1] = target: T1, CRM1 (Homo sapiens, UniProt O14980); test: Monitoring export inhibitory activity (translocation biosensor, HeLaRevBio cells); type: cell-based
T1 construct: HeLa cells stably expressing a fluorescent translocation biosensor (HeLaRevBio); endogenous in cells; host or cells: HeLa (HeLaRevBio in A7; HeLa in A8)
T1 sequence (O14980 whole entry): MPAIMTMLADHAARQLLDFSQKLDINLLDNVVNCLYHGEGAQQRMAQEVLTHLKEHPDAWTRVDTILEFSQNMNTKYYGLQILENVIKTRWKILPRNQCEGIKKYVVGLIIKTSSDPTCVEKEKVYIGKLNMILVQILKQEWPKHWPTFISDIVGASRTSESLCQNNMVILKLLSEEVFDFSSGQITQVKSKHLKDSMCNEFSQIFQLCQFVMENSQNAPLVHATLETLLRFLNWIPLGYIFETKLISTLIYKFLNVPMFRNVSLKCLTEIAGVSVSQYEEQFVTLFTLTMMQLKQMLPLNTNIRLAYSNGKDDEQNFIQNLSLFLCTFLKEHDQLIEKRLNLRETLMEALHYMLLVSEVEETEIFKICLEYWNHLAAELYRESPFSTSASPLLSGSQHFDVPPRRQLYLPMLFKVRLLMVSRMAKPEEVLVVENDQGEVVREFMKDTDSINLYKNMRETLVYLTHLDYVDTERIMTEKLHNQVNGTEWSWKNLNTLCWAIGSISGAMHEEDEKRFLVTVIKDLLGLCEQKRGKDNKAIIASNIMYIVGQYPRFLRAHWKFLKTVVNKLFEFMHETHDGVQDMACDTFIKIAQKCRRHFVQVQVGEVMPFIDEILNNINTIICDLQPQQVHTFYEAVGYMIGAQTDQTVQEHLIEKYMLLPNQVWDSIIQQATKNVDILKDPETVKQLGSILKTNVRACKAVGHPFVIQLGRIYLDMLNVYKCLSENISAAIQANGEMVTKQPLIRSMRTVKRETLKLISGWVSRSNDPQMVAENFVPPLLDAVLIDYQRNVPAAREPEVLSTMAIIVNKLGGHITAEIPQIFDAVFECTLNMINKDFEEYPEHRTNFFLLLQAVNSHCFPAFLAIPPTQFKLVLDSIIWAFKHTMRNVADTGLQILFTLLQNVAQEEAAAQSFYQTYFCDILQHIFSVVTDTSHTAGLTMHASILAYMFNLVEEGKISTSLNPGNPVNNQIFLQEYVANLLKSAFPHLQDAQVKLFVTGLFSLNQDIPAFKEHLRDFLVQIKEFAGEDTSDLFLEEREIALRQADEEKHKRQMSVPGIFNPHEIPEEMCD
In short: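 HeLa cells stably expressing an NLS-GST-GFP-RevNES shuttle biosensor were treated with compound for 1 h, then fixed and Hoechst-stained. GFP intensity in nuclear and cytoplasmic regions was quantified by high-content imaging, and the inner-minus-outer mean intensity difference was the readout. IC50 came from four-parameter logistic fit; single-point testing used 125 nM final.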

[2] = system: KB 3.1 (DSMZ ACC 158) cells; test: cells; settings: Homo sapiens, KB 3-1, 120 h, read-out: IC50 [nM] KB-3.1, growth inhibition, 5 days of incubation, MTT assay
[3] = system: L-929 (DSMZ ACC 2) cells; test: Cell proliferation assay (MTT), L-929; type: cell-based; settings: read-out: IC50 [nM] L-929
Procedure: (§1) 60 μL of serial dilutions of the test compound were given to 120 μL of suspended cells (50.000/mL) in wells of 96-well plates. After 5 days of incubation growth inhibition (IC50) was determined using an MTT assay.^[64]

[4] = system: SKOV-3 (DSMZ ATCC HTB 77) cells; test: cells; type: cell-based
Procedure: as §1

[5] = system: MCF-7 (DSMZ ACC 115) cells; test: cells; type: cell-based
Procedure: as §1

[6] = system: A549 (DSMZ ACC 107) cells; test: cells; type: cell-based
Procedure: as §1

[7] = system: KB 3.1 (DSMZ ACC 158) cells; settings: read-out: IC50 [nM] KB-3.1; growth inhibition, 5 days of incubation, MTT assay
[8] = target: T2, nuclear export receptor Crm1 (Homo sapiens, UniProt O14980); test: Pull-down with ratjadone-biotin, LC-MS proteomic target identification; type: binding; settings: HeLa cells, 0.1 μg/ml, 5h; streptavidin sepharose; 79 proteins identified
T2 construct: HeLa cells stably expressing a fluorescent translocation biosensor (HeLaRevBio); endogenous in cells; host or cells: HeLa (HeLaRevBio in A7; HeLa in A8)
T2 sequence (O14980 whole entry): as above
Procedure: Binding of Ratjadone to the nuclear export receptor Crm1 was shown in a chemical pull down. HeLa cells were treated with ratjadone-biotin, ratjadone or both at 0.1 μg/ml final concentration for 5h. Cells were detached by scraping, washed twice in PBS and lysed in MPER-buffer (Thermo Fisher, Waltham, USA) supplemented with complete protease inhibitor (Roche, Mannheim, Germany). After 5 min incubation on ice the lysate was centrifuged (20 min, 13000 rpm, 4° C.) and the supernatant was incubated with streptavidin sepharose high performance (GE healthcare, Freiburg, Germany) overnight at 4° C. The next day beads were washed twice with PBS and resuspended in elution buffer (Roth) and heated to 95° C. for 10 min. 5% were tested on WesternBlot with a biotin-specific antibody (see FIG. 11). The eluate was given to the proteomics platform (J. Wissing) for identification of proteins.

[9] = HeLa cells stably expressing translocation biosensor, 1h of incubation, read-out: IC50 [nM] CRM1 (nuclear export inhibition)

Row | SMILES | IC50 [1, 9] [nM] | IC50 [2] [nM] | IC50 ([3]; Mus musculus, L929, 120 h) [nM] | IC50 ([4]; Homo sapiens, SK-OV-3, 120 h, read-out: IC50 [nM] SK-OV-3, growth inhibition, 5 days of incubation, MTT assay) [nM] | IC50 ([5]; Homo sapiens, MCF7, 120 h, read-out: IC50 [nM] MCF-7, growth inhibition, 5 days of incubation, MTT assay) [nM] | IC50 ([6]; Homo sapiens, A549, 120 h, read-out: IC50 [nM] A-549, growth inhibition, 5 days of incubation, MTT assay) [nM] | IC50 ([3]; growth inhibition, 5 days of incubation, MTT assay) [nM] | IC50 ([4]; growth inhibition, 5 days of incubation, MTT assay, read-out: IC50 [nM] SK-OV-3) [nM] | IC50 ([5]; growth inhibition, 5 days of incubation, MTT assay, read-out: IC50 [nM] MCF-7) [nM] | IC50 ([6]; growth inhibition, 5 days of incubation, MTT assay, read-out: IC50 [nM] A-549) [nM] | IC50 [7] [nM] | IC50 [1] [nM] | proteins identified in the pull-down eluate [8]
1 | C/C=C/[C@@H]1O[C@H](C(=O)/C=C/C=C(\C)C[C@@H](C)/C=C(C)\C=C\[C@H]2CC=CC(=O)O2)C[C@@H](O)[C@@H]1C [16-Oxo-Ratjadone 8, (R)-6-((R,1E,3Z,7E,9E)-11-((2S,4R,5S,6S)-4-hydroxy-5-methyl-6-((E)-prop-1-en-1-yl)tetrahydro-2H-pyran-2-yl)-3,5,7-trimethyl-11-oxoundeca-1,3,7,9-tetraen-1-yl)-5,6-dihydro-2H-pyran-2-one] | 52.5 | 2.57 | 12.6 | 0.24 | 0.22 | 1.76 | – | – | – | – | – | – | –
2 | C/C=C/[C@@H]1O[C@H]([C@H](O)/C=C/C=C(\C)C[C@@H](C)/C=C(C)\C=C\[C@H]2CC=CC(=O)O2)CC(=O)[C@@H]1C [19-Oxo-Ratjadone 9, (R)-6-((1E,3Z,5R,7E,9E,9E,11R)-11-hydroxy-3,5,7-trimethyl-11-((2S,5R,6S)-5-methyl-4-oxo-6-((E)-prop-1-en-1-yl)tetrahydro-2H-pyran-2-yl)undeca-1,3,7,9-tetraen-1-yl)-5,6-dihydro-2H-pyran-2-one] | 13.3 | – | – | – | – | – | 24.3 | 0.16 | 0.48 | 0.1 | 0.36 | – | –
3 | C/C=C/[C@@H]1O[C@H]([C@H](/C=C/C=C(\C)C[C@@H](C)/C=C(C)\C=C\[C@H]2CC=CC(=O)O2)NC(=O)OCCc2cn(CCOCCOCCOCCNC(=O)CCCC[C@@H]3SC[C@@H]4NC(=O)N[C@@H]43)nn2)C[C@@H](O)[C@@H]1C [Biotin-PEG3-16S-Aminoratjadone, 2-(1-(13-oxo-17-((3aS,4S,6aR)-2-oxohexahydro-1H-thieno[3,4-d]imidazol-4-yl)-3,6,9-trioxa-12-azaheptadecyl)-1H-1,2,3-triazol-4-yl)ethyl ((1S,2E,4E,7R,8Z,10E)-1-((2S,4R,5S,6S)-4-hydroxy-5-methyl-6-((E)-prop-1-en-1-yl)tetrahydro-2H-pyran-2-yl)-5,7,9-trimethyl-11-((R)-6-oxo-3,6-dihydro-2H-pyran-2-yl)undeca-2,4,8,10-tetraen-1-yl)carbamate] | – | – | – | – | – | – | – | – | – | – | – | 152 | CRM1 having the highest area
